From ChEMBL document CHEMBL1121723 (J Med Chem, 1981)
pIC50: −log10 of the molar value.

Columns and labels:
[1] = target: Thromboxane-A synthase (Oryctolagus cuniculus); test: Inhibitory activity against rabbit thromboxane synthetase
[2] = test system: Thromboxane-A synthase (Oryctolagus cuniculus); test: Compound was tested for its inhibitory activity against Thromboxane synthetase; conditions: concentration not given here
[3] = test system: Thromboxane-A synthase (Oryctolagus cuniculus); test: Compound was tested for its inhibitory activity against Thromboxane synthetase at 25 nM

pIC50 [1]	inhibition [2]	inhibition [3]	SMILES
< 6.00	–	–	CC(=O)CCCCCCCn1ccnc1
6.60	–	–	O=C(O)/C=C/c1ccc(OCCn2ccnc2)cc1
–	8.8%	–	O=S(=O)(O)CCCCCCn1ccnc1
5.48	–	9%	C[S+]([O-])CCCCCCCCn1ccnc1 (stereo not given)
–	11.4%	–	CSCCCCCCCCn1ccnc1
5.70	–	13.4%	c1cn(CCCCCCCn2ccnc2)cn1
6.85	–	–	O=C(O)C(O)CCCCCCn1ccnc1 (stereo not given)
< 6.00	–	–	Cc1nccn1CCCCCCC(=O)O
4.70	–	–	O=C(O)CCCCCCc1ncc[nH]1
7.60	–	–	CC(C)(Oc1ccc(Cn2ccnc2)cc1)C(=O)O
6.60	–	–	O=C(O)C(CO)CCCCCCn1ccnc1 (stereo not given)
5.92	–	–	O=C(O)CCCc1ccc(Cn2ccnc2)cc1
6.87	–	–	O=C(CCCCCCCn1ccnc1)c1ccccc1
7.40	–	–	O=C(O)COc1ccc(Cn2ccnc2)cc1
7.49	–	–	O=C(O)/C=C/c1cccc(Cn2ccnc2)c1
–	17.5%	–	SCCCCCCCCn1ccnc1
8.05	–	–	CC(C)(CCCC#CCn1ccnc1)C(=O)O
8.30	–	–	O=C(O)c1ccc(CCCn2ccnc2)cc1
6.68	–	–	O=C(O)COc1ccccc1Cn1ccnc1
6.92	–	–	O=C(O)CCCc1ccc(-n2ccnc2)cc1
7.36	–	–	O=C(O)c1ccc(/C=C/Cn2ccnc2)cc1
6.26	–	–	O=C(O)C(CCCCCCn1ccnc1)C(=O)O
6.35	–	–	CC(C)(CC/C=C/C=C/C(=O)O)n1ccnc1
< 6.00	–	–	NC(CCCCCCn1ccnc1)C(=O)O (stereo not given)
5.82	–	–	O=C(O)Cc1ccc(CCn2ccnc2)cc1
4.70	–	–	O=C(O)CCCCCCc1c[nH]cn1
–	0%	–	N#CCCCCCCCn1ccnc1
7.42	–	–	CC(Oc1ccc(Cn2ccnc2)cc1)C(=O)O (stereo not given)
